According to the Deep4Chem optical property database:

Assay: solvent given as SMILES

CN(C)c1ccc(/C=C/c2cc[n+](C)c3ccccc23)cc1
absorption maximum (in CC(C)=O): 540 nm
absorption maximum (in ClCCl): 581 nm
absorption maximum (in O): 510 nm

CCCCCCOc1ccc(C#Cc2ccc(C#CC#Cc3ccc(C#Cc4ccc(OCCCCCC)c(OCCCCCC)c4)c4nsnc34)c3nsnc23)cc1OCCCCCC
absorption maximum (in CN(C)C=O): 468 nm
absorption maximum (in COc1ccccc1): 472 nm
absorption maximum (in Cc1ccccc1): 470 nm
absorption maximum (in ClC(Cl)Cl): 472 nm
absorption maximum (in ClCCCl): 471 nm
absorption maximum (in ClCCl): 469 nm

C#Cc1ccc(-c2nc(-c3ccc(C#C)s3)nc(-c3ccc(C#C)s3)n2)s1
absorption maximum (in ClCCl): 348 nm

C1=C(c2ccccc2)B(c2ccccc2)Nc2c1ccc1ccccc21
absorption maximum (in C1CCCCC1): 365 nm

COC(=O)c1ccc(/C=C2\C=C(c3ccc(C#N)cc3)N(CC(C)C)C2=O)cc1
absorption maximum (in C1COCCO1): 438 nm

COC(=O)c1nc2c(N(C)C)nc(N(C)C)nc2n1Cc1ccccc1
absorption maximum (in C1COCCO1): 344 nm
absorption maximum (in CC#N): 347 nm
absorption maximum (in CO): 347 nm
absorption maximum (in ClCCl): 351 nm

CCCCC1(c2ccccc2)Nc2c(-c3ccc(N(c4ccccc4)c4ccccc4)cc3)ccc(-c3ccc(N(c4ccccc4)c4ccccc4)cc3)c2N=C1c1ccccc1 (configuration not stated)
absorption maximum (in ClC(Cl)Cl): 370 nm

CCCCc1ccc(C#Cc2ccc3nc4ccc(C#Cc5ccc(CCCC)cc5)cn4c(=O)c3c2)cc1
absorption maximum (in ClCCl): 383 nm

N#CC(C#N)=C(/C=C/c1ccc(N(c2ccccc2)c2ccccc2)cc1)c1ccc2c3c(cccc13)CC2
absorption maximum (in C1CCOC1): 485 nm
absorption maximum (in CC#N): 486 nm
absorption maximum (in CC(C)=O): 485 nm
absorption maximum (in CCOC(C)=O): 482 nm
absorption maximum (in CN(C)C=O): 493 nm
absorption maximum (in CO): 490 nm
absorption maximum (in Cc1ccccc1): 493 nm
absorption maximum (in ClC(Cl)Cl): 502 nm

CCCCCCc1cc2c3c(c1)c(=C(c1ccccc1)c1ccccc1)c1cc(CCCCCC)cc4c1N3c1c(cc(CCCCCC)cc1c4=C(c1ccccc1)c1ccccc1)c2=C(c1ccccc1)c1ccccc1
absorption maximum (in ClCCl): 405 nm

CCNc1cc2oc(=O)cc(C(F)(F)F)c2cc1C
absorption maximum (in CC#N): 383 nm

CC1=CC(C)=[N+]2C1=C(c1ccc(I)cc1)c1c(C)cc(C)n1[B-]2(Oc1ccc(Cl)cc1)Oc1ccc(Cl)cc1
absorption maximum (in ClC(Cl)Cl): 506 nm

N#Cc1c(-n2c3ccc(Cl)cc3c3cc(Cl)ccc32)c(C#N)c(-n2c3ccc(Cl)cc3c3cc(Cl)ccc32)c(-n2c3ccc(Cl)cc3c3cc(Cl)ccc32)c1-n1c2ccc(Cl)cc2c2cc(Cl)ccc21
absorption maximum (in Cc1ccccc1): 384 nm

CCC1=C(C)C2=Cc3c4ccccc4c4n3[B-](c3cc[n+](C)cc3)(Oc3ccccc3-4)[N+]2=C1C=Cc1ccc(OC)cc1 (configuration not stated)
absorption maximum (in CO): 695 nm
absorption maximum (in CS(C)=O): 703 nm

COc1ccc(C2=Cc3ccccc3P2(=O)c2ccccc2)cc1 (configuration not stated)
absorption maximum (in C1CCOC1): 362 nm
absorption maximum (in ClCCl): 365 nm

Oc1ccc2ccccc2c1C1Nc2cccc3cccc(c23)N1
absorption maximum (in CC#N): 334 nm
absorption maximum (in CO): 333 nm
absorption maximum (in CS(C)=O): 350 nm
absorption maximum (in Cc1ccccc1): 337 nm

CC(C)(C)c1ccc2c(c1)c1cc(C(C)(C)C)ccc1n2-c1ccc(C(=O)c2ccc(-n3c4ccc(C(C)(C)C)cc4c4cc(C(C)(C)C)ccc43)nc2)cn1
absorption maximum (in C1CCOC1): 377.31 nm
absorption maximum (in Cc1ccccc1): 383.97 nm
absorption maximum (in ClCCl): 382.72 nm

CC(C)(C)c1ccc(-c2nc3c4ccc(-c5ccccc5)cc4c4cc(-c5ccccc5)ccc4c3n2-c2ccc(C(C)(C)C)cc2)cc1
absorption maximum (in C1CCOC1): 331 nm
absorption maximum (in C1COCCO1): 333 nm
absorption maximum (in CC#N): 329 nm
absorption maximum (in CCCCCC): 331 nm
absorption maximum (in CCCCOCCCC): 331 nm
absorption maximum (in CCN(CC)CC): 332 nm
absorption maximum (in CCOC(C)=O): 329 nm
absorption maximum (in CCOCC): 330 nm
absorption maximum (in CN(C)C=O): 331 nm
absorption maximum (in Cc1ccccc1): 333 nm
absorption maximum (in ClC=C(Cl)Cl): 332 nm
absorption maximum (in ClCCl): 330 nm

CC(C)(C)c1ccc2c(c1)c1cc(C(C)(C)C)ccc1n2-c1ccc2c(c1)C(=O)c1ccc(-n3c4ccc(C(C)(C)C)cc4c4cc(C(C)(C)C)ccc43)cc1C2=O
absorption maximum (in Cc1ccccc1): 463 nm

F[B-]1(F)n2c(-c3cccs3)cc(-c3ccccc3)c2N=C2C(c3ccccc3)=CC(c3cccs3)=[N+]21
absorption maximum (in CC#N): 710 nm
absorption maximum (in ClCCl): 718 nm

COc1cc(OC)cc(C2=C3C(C)=C(I)C(/C=C/c4c[nH]c5ccc([N+](=O)[O-])cc45)=[N+]3[B-](F)(F)n3c(/C=C/c4c[nH]c5ccc([N+](=O)[O-])cc45)c(I)c(C)c32)c1
absorption maximum (in C1CCOC1): 695 nm
absorption maximum (in CS(C)=O): 712 nm
absorption maximum (in ClCCl): 690 nm

CC(=O)OC[C@@H]1O[C@H](N2C=CC3=Nc4nc(C)[n+](C)cc4CN3C2=O)[C@@H](O)[C@H]1O
absorption maximum (in CC#N): 386 nm
absorption maximum (in CCO): 388 nm
absorption maximum (in O): 382 nm

CC(N)=O
absorption maximum (in O): 220 nm

Clc1ccc(N2c3sc4ccccc4c3Sc3c2sc2ccccc32)cc1
absorption maximum (in ClCCl): 418 nm

COc1ccc2oc(-c3cc4cc(OC)ccc4oc3=O)cc2c1
absorption maximum (in CC#N): 382 nm
absorption maximum (in CCOC(C)=O): 384 nm
absorption maximum (in CS(C)=O): 389 nm
absorption maximum (in Cc1ccccc1): 388 nm
absorption maximum (in O): 347 nm

O=C1O[B-]2(OC1=O)OC(c1ccccc1)=CC(c1ccc3ccccc3c1)=[O+]2
absorption maximum (in CC#N): 435 nm
absorption maximum (in ClC(Cl)(Cl)Cl): 435 nm

CC(C)(C)c1ccc2c(c1)c1cc3c4cc(C(C)(C)C)ccc4c4c5c6ccc(C(C)(C)C)cc6c6cc7c8cc(C(C)(C)C)ccc8c8c2c1c(c34)c(c78)c65
absorption maximum (in CCCCCC): 542.15 nm
absorption maximum (in CCOCC): 541.57 nm
absorption maximum (in Cc1ccccc1): 545.85 nm

CCc1c(C)[nH]c(C2=[N+]3C(=Cc4c(C)c(CC)c(C)n4[B-]3(F)F)c3ccccc32)c1C
absorption maximum (in C1CCOC1): 629 nm
absorption maximum (in CC#N): 620 nm
absorption maximum (in CCCCCC): 629 nm
absorption maximum (in CO): 623 nm
absorption maximum (in Cc1ccccc1): 636 nm
absorption maximum (in ClCCl): 629 nm

CC(C)c1cccc(C(C)C)c1N1C(=O)c2cc(Cl)c3c4c(Cl)cc5c6c(cc(Cl)c(c7c(Cl)cc(c2c37)C1=O)c64)C(=O)N(c1c(C(C)C)cccc1C(C)C)C5=O
absorption maximum (in Cc1ccccc1): 523 nm

Cc1cc(-c2ccc(-c3n(C)c4ccccc4[n+]3C)cc2)ccc1-c1ccc(-c2n(C)c3ccccc3[n+]2C)cc1
absorption maximum (in O): 299 nm

F[B-]1(F)n2c(-c3ccccc3)cc(-c3ccccc3)c2C(c2ccccc2)=C2C(c3ccccc3)=CC(c3ccccc3)=[N+]21
absorption maximum (in C1CCOC1): 561 nm

N#C/C(=N/Nc1ccc(C#N)cc1)c1nc(-c2ccccc2)cs1
absorption maximum (in CC#N): 396 nm
absorption maximum (in CCO): 398 nm
absorption maximum (in CN(C)C=O): 477 nm
absorption maximum (in Cc1ccccc1): 401 nm
absorption maximum (in ClCCl): 399 nm

COc1ccc(-n2nc(C#N)c(N3CCCCCC3)n2)cc1
absorption maximum (in CC#N): 344 nm

Cc1cc2nc3c(=O)[nH]c(=O)n(C)c3nc2cc1C
absorption maximum (in CC#N): 379 nm

CCN1c2ccc(-c3cc(-c4ccccc4)[nH]n3)cc2Sc2cc(-c3cc(-c4ccccc4)[nH]n3)ccc21
absorption maximum (in C1CCOC1): 338 nm
absorption maximum (in CC#N): 338 nm
absorption maximum (in CN(C)C=O): 336 nm
absorption maximum (in ClCCl): 336 nm
absorption maximum (in c1ccccc1): 338 nm

COc1ccc(C#Cc2ccc(C#Cc3ccc(C#Cc4ccccc4C#N)cc3C#N)cc2C#N)cc1
absorption maximum (in C1CCOC1): 369 nm
absorption maximum (in CC#N): 364 nm
absorption maximum (in CN(C)C=O): 369 nm
absorption maximum (in ClC(Cl)Cl): 371 nm
absorption maximum (in c1ccccc1): 371 nm

COc1ccc(OC)c(C2=C3C=CC(=[N+](C)C)C=C3[Si](C)(C)c3cc(N(C)C)ccc32)c1
absorption maximum (in O): 651 nm

Cc1ccc2ccccc2c1
absorption maximum (in C1CCCCC1): 303.77 nm

Cc1nc2c(ccc3c2sc(/C=C/c2ccc(N4CCN(C)CC4)cc2)[n+]3C)s1
absorption maximum (in CO): 505 nm
absorption maximum (in ClC(Cl)Cl): 545 nm

CCCCCCn1c2ccccc2c2cc(-c3ccc(-c4cc(-c5ccccn5)nc(-c5ccccn5)c4)cc3)ccc21
absorption maximum (in ClCCl): 296 nm

CC1=CC(c2ccc(N(C)C)cc2)=[N+]2C1=Nc1c(C)cc(-c3ccc(N(C)C)cc3)n1[B-]2(F)F
absorption maximum (in C1CCOC1): 744 nm
absorption maximum (in CS(C)=O): 774 nm
absorption maximum (in Cc1ccccc1): 734 nm

Cc1cc(C)c(C2=C3C=CC(c4csc5ccccc45)=[N+]3[B-](F)(F)n3c2ccc3-c2csc3ccccc23)c(C)c1
absorption maximum (in ClC(Cl)Cl): 581 nm

CC(=O)[B-]1(C(C)=O)OC(c2ccccc2)=CC(c2ccccc2)=[O+]1
absorption maximum (in CC#N): 377 nm
absorption maximum (in ClC(Cl)(Cl)Cl): 382 nm

COC(=O)c1ccc(/C=C2\C=C(c3ccccc3)NC2=O)cc1
absorption maximum (in C1COCCO1): 437 nm

COc1cc(C)c2c(c1C)OC(=O)c1c(C)c(Cl)c(O)c(Cl)c1O2
absorption maximum (in ClC(Cl)Cl): 342 nm

CCOC(=O)CN(CC(=O)OCC)c1ccc(-c2cc(-c3cccnc3)nc(-c3cccnc3)c2)cc1
absorption maximum (in CC#N): 328 nm
absorption maximum (in CCOC(C)=O): 328 nm
absorption maximum (in CN(C)C=O): 334 nm
absorption maximum (in CS(C)=O): 338 nm
absorption maximum (in c1ccccc1): 328 nm

CCOC(=O)/C=C/c1cc2ccc(O)cc2oc1=O
absorption maximum (in CCO): 367 nm

CC(C)n1c(=O)c2cc3ccc4cccc5ccc(c2c1=O)c3c45
absorption maximum (in ClC(Cl)Cl): 427 nm

Cc1cc(C)c2nc3c(=O)[nH]c(=O)[nH]c3nc2c1
absorption maximum (in CC#N): 350 nm

CN(C)c1ccc(/C=C/C(=C(C#N)C#N)c2ccc3c4c(cccc24)CC3)cc1
absorption maximum (in C1CCOC1): 488 nm
absorption maximum (in CC#N): 494 nm
absorption maximum (in CC(C)=O): 492 nm
absorption maximum (in CCOC(C)=O): 497 nm
absorption maximum (in CN(C)C=O): 505 nm
absorption maximum (in CO): 496 nm
absorption maximum (in Cc1ccccc1): 487 nm
absorption maximum (in ClC(Cl)Cl): 483 nm

COc1cc(OC)cc(C2=[O+][B-](F)(F)OC(c3cccs3)=C2)c1
absorption maximum (in ClCCl): 391 nm

N#Cc1c(N2CCCCC2)cc(-c2ccc(-c3ccccc3)cc2)c2c1CCc1ccccc1-2
absorption maximum (in C1CCOC1): 332 nm

N#Cc1cc(C#N)c(-n2c3ccccc3c3ccccc32)cc1-n1c2ccccc2c2ccccc21
absorption maximum (in Cc1ccccc1): 374 nm
